# Like-named read-outs stand apart in the source and are kept apart here.
# Assays:
# Ustilago maydis (USTIMA) = experiment: microbe, parasite or virus in culture; assay type: cell-based
# [1] = test system: Puccinia recondita—PUCCRT; experiment: Brown Rust of Wheat, in vivo whole plant, 24 Hour Protectant; details: inoculated after 24 hours; for pest or weed control at 100 ppm: Puccinia, read-out: PUCCRT in vivo 1 Day Protectant
# [2] = test system: Rhizoctonia solani (RHIZSO); experiment: microbe, parasite or virus in culture; assay type: cell-based
# Septoria tritici—SEPTTR = experiment: Leaf Blotch of Wheat, in vivo whole plant, 24 Hour Protectant; details: inoculated after 24 hours; for pest or weed control at 100 ppm: Zymoseptoria tritici, read-out: SEPTTR in vivo 1 Day Protectant
# [3] = test system: Leptosphaeria nodorum—LEPTNO; experiment: Glume Blotch of Wheat, in vivo whole plant, 24 Hour Protectant; details: for pest or weed control at 100 ppm: Leptosphaeria, 24 h, read-out: LEPTNO in vivo 1 Day Protectant
# Erysiphe graminis—ERYSGT = experiment: Powdery Mildew of Wheat, in vivo whole plant, 24 Hour Protectant; details: for pest or weed control at 100 ppm: Erysiphe, in Triticum aestivum, 24 h, read-out: ERYSGT in vivo 1 Day Protectant; for ERYSGT in vivo 1 Day Protectant: inoculated after 24 hours
# [4] = test system: Phytophthora infestans—PHYTIN; experiment: whole plant or invertebrate; assay type: in vivo; details: Phytophthora, in Solanum lycopersicum, 24 h, read-out: PHYTIN in vivo 1 Day Protectant
# [5] = wheat (cultivar Yuma), sprayed at 100 ppm, control of fungal infection vs untreated plants
# [6] = wheat (cultivar Yuma), sprayed at 100 ppm, inoculated after 24 hours, control of fungal infection vs untreated plants
# [7] = wheat plants sprayed at 100 ppm, control vs untreated plants
# [8] = wheat plants sprayed at 100 ppm, inoculated after 24 hours, control vs untreated plants
Structure (SMILES),USTIMA in vitro Growth Inhibition (Ustilago maydis (USTIMA)),"pest or weed control at 100 ppm [1, 5] [%]",RHIZSO in vitro Growth Inhibition [2],pest or weed control at 100 ppm (Septoria tritici—SEPTTR; [5]) [%],"pest or weed control at 100 ppm [3, 6] [%]",other results
O=C(Nc1ccc(Cl)cc1)c1ncccc1O [Compound 213],− (key: +: at least 80% growth inhibition; −: less than 80% growth inhibition),75 to 100,− (key: +: at least 80% growth inhibition; −: less than 80% growth inhibition),–,–,–
COc1ccnc(C(=O)NCC#Cc2ccccc2)c1O [Compound 240],− (key: +: at least 80% growth inhibition; −: less than 80% growth inhibition),–,− (key: +: at least 80% growth inhibition; −: less than 80% growth inhibition),75 to 100,–,–
CCC1(C)CC(NC(=O)c2nccc(OC)c2O)CC(C)(C)C1 (stereo not drawn) [Compound 251],− (key: +: at least 80% growth inhibition; −: less than 80% growth inhibition),75 to 100,− (key: +: at least 80% growth inhibition; −: less than 80% growth inhibition),75 to 100,75 to 100,–
COc1ccnc(C(=O)NC2CC(C)(C)C(Oc3cc(C(F)(F)F)cc(C(F)(F)F)n3)C(C)(C)C2)c1O (stereo not drawn) [Compound 272],− (key: +: at least 80% growth inhibition; −: less than 80% growth inhibition),–,− (key: +: at least 80% growth inhibition; −: less than 80% growth inhibition),75 to 100,–,–
COc1ccnc(C(=O)NC2CCCC(Sc3ccc(C(F)(F)F)cn3)C2)c1O (stereo not drawn) [Compound 274],− (key: +: at least 80% growth inhibition; −: less than 80% growth inhibition),75 to 100,+ (key: +: at least 80% growth inhibition; −: less than 80% growth inhibition),–,75 to 100,–
COc1ccnc(C(=O)NC2CC(C)(C)CCCC2C)c1O (stereo not drawn) [Compound 277],− (key: +: at least 80% growth inhibition; −: less than 80% growth inhibition),–,− (key: +: at least 80% growth inhibition; −: less than 80% growth inhibition),75 to 100,–,–
COc1ccnc(C(=O)NC2CC(C)(C)/C=C\CC(C)(C)C2)c1O (stereo not drawn) [Compound 283],− (key: +: at least 80% growth inhibition; −: less than 80% growth inhibition),–,− (key: +: at least 80% growth inhibition; −: less than 80% growth inhibition),75 to 100,–,–
COc1ccnc(C(=O)N[C@@H]2CC3CC2c2ccccc23)c1O (stereo partly drawn) [Compound 290],− (key: +: at least 80% growth inhibition; −: less than 80% growth inhibition),75 to 100,+ (key: +: at least 80% growth inhibition; −: less than 80% growth inhibition),–,75 to 100,–
COc1ccnc(C(=O)N[C@H]2CC3CC2[C@@H](COCc2cccc(C(F)(F)F)c2)C3)c1O (stereo partly drawn) [Compound 295],− (key: +: at least 80% growth inhibition; −: less than 80% growth inhibition),–,+ (key: +: at least 80% growth inhibition; −: less than 80% growth inhibition),75 to 100,–,–
COc1ccnc(C(=O)NC2C3CC4C(C3Cl)C42)c1O (stereo not drawn) [Compound 304],− (key: +: at least 80% growth inhibition; −: less than 80% growth inhibition),–,+ (key: +: at least 80% growth inhibition; −: less than 80% growth inhibition),75 to 100,–,–
COc1ccnc(C(=O)N[C@H]2CO[C@H](C(C)Cc3ccc(C(C)(C)C)cc3)OC2)c1O (stereo partly drawn) [Compound 316],+ (key: +: at least 80% growth inhibition; −: less than 80% growth inhibition),75 to 100,− (key: +: at least 80% growth inhibition; −: less than 80% growth inhibition),–,–,–
COc1ccnc(C(=O)N[C@H]2CO[C@@H](C(C)Cc3ccc(C(C)(C)C)cc3)OC2)c1O (stereo partly drawn) [Compound 317],− (key: +: at least 80% growth inhibition; −: less than 80% growth inhibition),75 to 100,− (key: +: at least 80% growth inhibition; −: less than 80% growth inhibition),–,–,–
COc1ccnc(C(=O)N[C@H]2CO[C@](C)(C(C)CC3=C(C)CCCC3(C)C)OC2)c1O (stereo partly drawn) [Compound 319],− (key: +: at least 80% growth inhibition; −: less than 80% growth inhibition),75 to 100,− (key: +: at least 80% growth inhibition; −: less than 80% growth inhibition),–,–,–
COc1ccnc(C(=O)NC2C(=O)c3ccc(-c4ccco4)cc3OC2C)c1O (stereo not drawn) [Compound 323],− (key: +: at least 80% growth inhibition; −: less than 80% growth inhibition),–,+ (key: +: at least 80% growth inhibition; −: less than 80% growth inhibition),75 to 100,75 to 100,–
COc1ccnc(C(=O)N[C@@H](Cc2ccc(OCc3ccccc3)cc2)C(=O)OCc2ccccc2)c1O [Compound 339],− (key: +: at least 80% growth inhibition; −: less than 80% growth inhibition),75 to 100,− (key: +: at least 80% growth inhibition; −: less than 80% growth inhibition),75 to 100,75 to 100,–
COC(=O)C(COC(=O)C(CO[Si](C)(C)C(C)(C)C)Cc1ccccc1)NC(=O)c1nccc(OC)c1O (stereo not drawn) [Compound 350],–,75 to 100,–,< 25,75 to 100,pest or weed control at 100 ppm (Erysiphe graminis—ERYSGT): < 25%; pest or weed control at 100 ppm [4]: < 25%
COc1ccnc(C(=O)NC(COC(=O)CCc2ccccc2)C(=O)OC(C)COC(=O)C(C)C)c1O (stereo not drawn) [Compound 359],–,75 to 100,–,75 to 100,–,–
COc1ccnc(C(=O)N[C@H]2COC(=O)[C@H](Cc3ccccc3)[C@@H](OCC(C)C)[C@H](C)OC2=O)c1O [Compound 384],–,–,–,–,75 to 100,pest or weed control at 100 ppm (Erysiphe graminis—ERYSGT): 75 to 100%
CCC(C)C(=O)O[C@H]1[C@H](C)OC(=O)[C@@H](NC(=O)c2nccc(OC)c2O)COC(=O)[C@@H]1Cc1ccccc1 (stereo partly drawn) [Compound 389],–,25 to 74,–,25 to 74,75 to 100,pest or weed control at 100 ppm (Erysiphe graminis—ERYSGT): < 25%; pest or weed control at 100 ppm [4]: < 25%
COc1ccnc(C(=O)N[C@H]2COC(=O)[C@H](Cc3ccccc3)[C@@H](OC(=O)CC(C)C)[C@H](C)OC2=O)c1O [Compound 390],–,25 to 74,–,25 to 74,75 to 100,pest or weed control at 100 ppm (Erysiphe graminis—ERYSGT): < 25%; pest or weed control at 100 ppm [4]: < 25%
COc1ccnc(C(=O)N[C@H]2COC(=O)[C@H](Cc3ccccc3)[C@@H](OC(=O)Cc3ccccc3)[C@H](C)OC2=O)c1O [Compound 395],–,–,–,–,–,"ERYSGT in vivo 1 Day Protectant (Erysiphe graminis—ERYSGT; wheat (cultivar Monon), sprayed at 100 ppm, control of fungal infection vs untreated plants): − (<25% control of fungal infection); SEPTTR in vivo 1 Day Protectant (Septoria tritici—SEPTTR; [5]): + (25-74% control of fungal infection); LEPTNO in vivo 1 Day Protectant [3, 6]: + (25-74% control of fungal infection); PUCCRT in vivo 1 Day Protectant [1, 5]: + (25-74% control of fungal infection)"
COc1ccnc(C(=O)N[C@H]2COC(=O)[C@H](CC3CCCC3)[C@@H](OC(=O)C(C)C)[C@H](C)OC2=O)c1O [Compound 402],–,–,–,–,75 to 100,pest or weed control at 100 ppm (Erysiphe graminis—ERYSGT): 75 to 100%
COc1cccc(Oc2ccc(NC(=O)c3nccc(OC)c3O)cc2)c1 [Compound 435],–,–,–,–,–,"pest or weed control at 100 ppm (Erysiphe graminis—ERYSGT): < 25%; SEPTTR in vivo 1 Day Protectant (Septoria tritici—SEPTTR; [5]): − (<25% control of fungal infection); LEPTNO in vivo 1 Day Protectant [3, 6]: + (25-74% control of fungal infection); PUCCRT in vivo 1 Day Protectant [1, 5]: − (<25% control of fungal infection)"
COc1ccnc(C(=O)Nc2cccc(Oc3ccc(C(F)(F)F)cc3)n2)c1O [Compound 469],–,–,–,–,–,"pest or weed control at 100 ppm [1, 7]: 75 to 100%"
CCCC[C@H]1C(=O)O[C@H](C)C(NC(=O)c2cccc(NC(=O)c3nccc(OC)c3O)c2O)C(=O)O[C@@H](C)[C@@H]1OC(=O)CC(C)C (stereo partly drawn) [Compound 473],–,–,–,–,–,"ERYSGT in vivo 1 Day Protectant (Erysiphe graminis—ERYSGT; [7]): − (<25% control of fungal infection); SEPTTR in vivo 1 Day Protectant (Septoria tritici—SEPTTR; [7]): + (25-74% control of fungal infection); pest or weed control at 100 ppm [3]: 75 to 100%; PUCCRT in vivo 1 Day Protectant [1, 7]: + (25-74% control of fungal infection)"
COc1ccnc(C(=O)NC2COC(=O)[C@H](Cc3ccccc3)[C@@H](OC(=O)C(C)C)[C@H](C)OC2=O)c1O (stereo partly drawn) [Compound 475],–,–,–,–,–,"pest or weed control at 100 ppm (Erysiphe graminis—ERYSGT): < 25%; pest or weed control at 100 ppm (Septoria tritici—SEPTTR; [7]): 25 to 74%; pest or weed control at 100 ppm [3, 8]: 75 to 100%; pest or weed control at 100 ppm [4]: < 25%; pest or weed control at 100 ppm [1, 7]: 25 to 74%"
CC(C)C(=O)O[C@H]1[C@H](C)OC(=O)[C@@H](NC(=O)c2nsnc2O)COC(=O)[C@@H]1Cc1ccccc1 [Compound 553],–,–,–,–,–,"pest or weed control at 100 ppm [3, 8]: 75 to 100%; pest or weed control at 100 ppm [4]: 75 to 100%"
